# Article PMC7400457, “Profiling and Identification of Omeprazole Metabolites in Mouse Brain and Plasma by Isotope Ratio-Monitoring Liquid Chromatography-Mass Spectrometric Method” (Life, 2020)
# Where two headings read alike, the source gives them in different places.
# Legend:
# [1] = In vivo metabolite identification (MetID) after concomitant omeprazole/D3-omeprazole administration, mouse plasma and brain; set-up: species or system Male ICR mice; key to D, i.p. route (brain): found / not found / E, i.v. route (brain): found / not found / F, p.o. route (brain): found / not found / A, i.p. route (plasma): found / not found / B, i.v. route (plasma): found / not found / C, p.o. route (plasma): found / not found: O, found; -, not found; settings: for D, i.p. route (brain): found / not found / A, i.p. route (plasma): found / not found: 50 mg/kg omeprazole/D3-omeprazole 1:1, i.p.; for D, i.p. route (brain): found / not found / E, i.v. route (brain): found / not found / F, p.o. route (brain): found / not found: mouse brain; for A, i.p. route (plasma): found / not found / B, i.v. route (plasma): found / not found / C, p.o. route (plasma): found / not found: mouse plasma; for E, i.v. route (brain): found / not found / B, i.v. route (plasma): found / not found: 50 mg/kg omeprazole/D3-omeprazole 1:1, i.v.; for samples (matrix/route) in which the metabolite was observed: 50 mg/kg omeprazole/D3-omeprazole 1:1, mice; for F, p.o. route (brain): found / not found / C, p.o. route (plasma): found / not found: 50 mg/kg omeprazole/D3-omeprazole 1:1, p.o.
# Description: The LC–QTOF-MS system was consisted of a chromatographic pump system (Shimadzu CBM–20A/LC–20AD, Shimadzu Scientific Instruments, Riverwood Dr, Columbia, SC, USA), an auto-sampler system (Eksigent CTC HTS PAL, Sciex, Redwood City, CA, USA), equipped with a mass spectrometer (TripleTOF^TM 5600, Sciex, Redwood City, CA, USA). Chromatographic separation was performed using reversed-phase C18 columns (Phenomenex® Kinetex XB–C18 column; 2.1 × 50 mm for bioanalytical sample quantification and 2.1 × 100 mm for MetID). The HPLC mobile phase was comprised of distilled/deionized water containing 0.1% formic acid (phase A) and acetonitrile containing 0.1% formic acid (phase B) with a binary gradient program. The LC–gradient was optimized as follows: 3.2 min for the quantification (0–0.5 min, 5% B; 0.5–1.2 min, 5–95% B; 1.2–1.4 min, 95% B; 1.4–1.5 min, 95–5% B; and 1.5–3.2 min, 5% B with a flow rate of 0.4 mL/min) and 23 min for MetID (0–1 min, 5% B; 1–13 min, 5–40% B; 13–13.5 min, 40–45% B; 13.5–15.5 min, 45–90% B; 15.5–17.9 min, 90% B; 17.9–18 min, 90–5% B; and 18–23 min, 5% B with a flow rate of 0.3mL/min). In particular, the LC separation conditions for MetID studies were optimized where the peaks of metabolites were separated as much as possible. This was critical in searching for any relevant metabolites originated from omeprazole with unique isotope ratio 1:1.
# The single reaction monitoring at high sensitivity option (SRMHS) in the product ion scan was used for the quantification of PK as well as MetID samples. The information-dependent analysis (IDA) method including high resolution TOF full scan and seven unique information-dependent product ion scans were performed for the MetID study. The ion spray voltage (ISVF) was set at 5500 V. The source gas (nebulizer [GS1, ion source gas1] and heater [GS2, ion source gas2]) was set at 50 psi, and the source temperature was set at 500 °C with the curtain gas (CUR) flow of […].
# A separate in vivo MetID study was conducted. A total of 50 mg/kg (1:1 ratio of omeprazole and D3–omeprazole) was given through each administration route (p.o., i.v. and i.p.). After administration, blood and brain tissue sampling was conducted in the same manner as the previous PK studies. The collected samples were stored at −80 °C until analysis.
# The plasma samples obtained from the study dosed with 50 mg/kg were collected according to the Hamilton pooling method. The pooled plasma sample (a total of 274 μL) was transferred to a clean tube, and 1 mL of ACN was added. The pretreated samples were centrifuged at 10,000 rpm for 5 min, and 1100 μL of the supernatant was evaporated to dryness under vacuum in a centrifugal evaporator (CVE–3110, Eyela, Tokyo, Japan) connected to cold trap (UT–1000, Eyela, Tokyo, Japan). The dried residue was re-constituted, shaken and centrifuged. After centrifugation, the supernatant was transferred to an LC–vial for analysis.
# The metabolites of omeprazole were investigated using an LC–QTOF–MS assay. […] In this case, any metabolites having a mass difference of 3 daltons between omeprazole and its stable isotope D3–omeprazole were thoroughly searched as possible drug-related metabolites.
# [2] = Pharmacokinetic study of omeprazole in mice after i.v., i.p. and p.o. administration (plasma and brain, LC-QTOF-MS); type: in vivo, Male ICR mice; settings: 10 mg/kg; for Kp: brain/plasma; for bioavailability: read-out: BA (bioavailability)
# Description: Omeprazole formulation was freshly prepared on the day of experiment. Mice were randomly distributed into three different groups (twelve mice per group; p.o. group, i.v. group and i.p. group) and received 10 mg/kg of omeprazole. […] Blood was drawn into the heparinized tubes through cardiac puncture and was immediately centrifuged at 10,000 rpm for 5 min. The supernatant of the centrifuged samples was transferred to the clean tubes and stored at −80 °C until analysis. […] The homogenized samples were stored at −80 °C until usage. • Plasma samples: Ten microliters of the mouse plasma samples were placed in cluster tubes. […] Hundred microliters of ACN containing internal standard (ISTD, verapamil) was added to each sample for extraction. The mixture was capped, gently shaken for approximately 1 min and then was centrifuged for 5 min at 10,000 rpm (4 °C). Following the centrifugation, 50 μL supernatant was transferred to a clean test tube and was diluted with 100 μL of distilled water. […] Ten microliters of the mouse brain homogenate were placed in cluster tubes. […] Hundred microliters of ACN containing internal standard (ISTD, verapamil) was added to each sample for extraction. The mixture was capped, gently shaken for approximately 1 min and then centrifuged for 5 min at 10,000 rpm (4 °C). Following the centrifugation, 50 μL supernatant was transferred to a clean test tube and was diluted with 100 μL of distilled water. The resulting mixture was then transferred to an LC-vial, and 10 μL was injected to the LC–QTOF–MS. • Standard (STD) and quality control (QC) samples: […] The mixture was capped, gently shaken for approximately 1 min and then centrifuged for 5 min at 10,000 rpm (4 °C). Following the centrifugation, 50 μL supernatant was transferred to a clean test tube and was diluted with 100 μL of distilled water. The resulting mixture was then transferred to an LC–vial, and 10 μL was injected to the LC–QTOF–MS. Data acquisition and LC–QTOF-MS operation was conducted using Analyst® TF Version 1.6 (Sciex). MultiQuant® Version 2.1.1 (Sciex) was used for the peak integration of omeprazole for quantification. PeakView® Version 2.2 and MetabolitePilot^TM Version 2.0.2 were used for the structural elucidation of omeprazole metabolites. Pharmacokinetic parameters were calculated in a non-compartmental analysis using WinNonlin® version 8.0.0 (Certara, Princeton, NJ, USA). The developed LC–QTOF-MS method was successfully applied to determine the PK parameters after i.v., i.p. and p.o. administration at a dose level of 10 mg/kg each for omeprazole in mice. During the sample preparation of the PK samples, QC samples were included for the assurance of the bioanalytical run. All the PK samples were within the range of the qualified calibration range (3.02~6670 ng/mL). Final concentrations were calculated by considering the dilution factors (e.g., 4× and 2× of the concentrations obtained from the brain and plasma, respectively). Each PK parameters were measured by non-compartmental analysis using WinNonlin (version 8.0.0). […] (Kp) = AUCbrain/AUCplasma(1)
smiles,measurement,setting,value
COc1c(C)cnc(CSc2nc3cc(O)ccc3[nH]2)c1C [Metabolite M17],"D, i.p. route (brain): found / not found",[1],O
same,"A, i.p. route (plasma): found / not found",[1],-
same,"E, i.v. route (brain): found / not found",[1],O
same,"B, i.v. route (plasma): found / not found",[1],-
same,samples (matrix/route) in which the metabolite was observed,[1],only from the brain–IP route and brain–IV route
same,"F, p.o. route (brain): found / not found",[1],-
same,"C, p.o. route (plasma): found / not found",[1],-
COc1c(C)cnc(C[S+]([O-])c2nc3cc(O[C@@H]4O[C@H](C(=O)O)[C@@H](O)[C@H](O)[C@H]4O)ccc3[nH]2)c1C (stereo partly shown) [Metabolite M2],"D, i.p. route (brain): found / not found",[1],O
same,"A, i.p. route (plasma): found / not found",[1],O
same,"E, i.v. route (brain): found / not found",[1],O
same,"B, i.v. route (plasma): found / not found",[1],O
same,samples (matrix/route) in which the metabolite was observed,[1],all samples except the brain–PO route sample
same,"F, p.o. route (brain): found / not found",[1],-
same,"C, p.o. route (plasma): found / not found",[1],O
COc1ccc2[nH]c(SCC(NC(C)=O)C(=O)O)nc2c1 (stereo not shown) [Metabolite M1],"D, i.p. route (brain): found / not found",[1],-
same,"A, i.p. route (plasma): found / not found",[1],O
same,"E, i.v. route (brain): found / not found",[1],-
same,"B, i.v. route (plasma): found / not found",[1],O
same,samples (matrix/route) in which the metabolite was observed,[1],plasma–IV route and plasma-IP route samples
same,"F, p.o. route (brain): found / not found",[1],-
same,"C, p.o. route (plasma): found / not found",[1],-
"COc1ccc2[nH]c(SCc3ncc(C)c(OC)c3C)nc2c1 [Metabolite M15, omeprazole sulfide]","D, i.p. route (brain): found / not found",[1],O
same,"A, i.p. route (plasma): found / not found",[1],O
same,"E, i.v. route (brain): found / not found",[1],O
same,"B, i.v. route (plasma): found / not found",[1],O
same,samples (matrix/route) in which the metabolite was observed,[1]; 50 mg/kg,all plasma samples (all dosing routes) and all brain samples (all dosing routes)
same,"F, p.o. route (brain): found / not found",[1],O
same,"C, p.o. route (plasma): found / not found",[1],O
COc1ccc2[nH]c([S+]([O-])Cc3ncc(C)c(OC)c3C)nc2c1 (stereo not shown) [Omeprazole],"D, i.p. route (brain): found / not found",[1],O
same,"A, i.p. route (plasma): found / not found",[1],O
same,"E, i.v. route (brain): found / not found",[1],O
same,"B, i.v. route (plasma): found / not found",[1],O
same,"F, p.o. route (brain): found / not found",[1],O
same,"C, p.o. route (plasma): found / not found",[1],O
same,brain-to-plasma partition coefficient (Kp) = AUCbrain/AUCplasma,"[2]; i.p., AUClast",0.0681
same,Kp,"[2]; male, ICR, mouse, ip, i.p., AUClast, read-out: brain-to-plasma partition coefficient (Kp) = AUCbrain/AUCplasma",0.068
same,Kp,"[2]; male, ICR, mouse, ip, i.p., read-out: Brain/Plasma Ratio",0.0681
same,Kp,"[2]; male, ICR, mouse, iv, i.v., AUClast, read-out: brain-to-plasma partition coefficient (Kp) = AUCbrain/AUCplasma",0.15
same,Kp,"[2]; male, ICR, mouse, iv, i.v., read-out: Brain/Plasma Ratio",0.147
same,Kp,"[2]; male, ICR, mouse, po, p.o., AUClast, read-out: brain-to-plasma partition coefficient (Kp) = AUCbrain/AUCplasma",0.064
same,Kp,"[2]; male, ICR, mouse, po, p.o., read-out: Brain/Plasma Ratio",0.0643
same,AUC(0-t),"[2]; male, ICR, mouse, ip, brain",72.8 ng·h/mL
same,half-life,"[2]; male, ICR, mouse, ip, brain",51.3 min
same,AUC(0-t),"[2]; male, ICR, mouse, ip, plasma",1070 ng·h/mL
same,Cmax,"[2]; male, ICR, mouse, ip, plasma",4890 ng/mL
same,half-life,"[2]; male, ICR, mouse, ip, plasma",28.8 min
same,AUC(0-t),"[2]; male, ICR, mouse, iv, brain",652 ng·h/mL
same,half-life,"[2]; male, ICR, mouse, iv, brain",48.2 min
same,AUC(0-t),"[2]; male, ICR, mouse, iv, plasma",4440 ng·h/mL
same,Cmax,"[2]; male, ICR, mouse, iv, plasma",67600 ng/mL
same,Vd,"[2]; male, ICR, mouse, iv, plasma",1.49 L/kg
same,clearance,"[2]; male, ICR, mouse, iv, plasma",37.8 mL/min/kg
same,half-life,"[2]; male, ICR, mouse, iv, plasma",27.4 min
same,bioavailability,"[2]; male, ICR, mouse, plasma, ip",24.1%
same,bioavailability,"[2]; male, ICR, mouse, plasma, po",5.31%
same,AUC(0-t),"[2]; male, ICR, mouse, po, brain",15.2 ng·h/mL
same,Cmax,"[2]; male, ICR, mouse, po, brain",37.8 ng/mL
same,half-life,"[2]; male, ICR, mouse, po, brain",44.6 min
same,AUC(0-t),"[2]; male, ICR, mouse, po, plasma",236 ng·h/mL
same,Cmax,"[2]; male, ICR, mouse, po, plasma",610 ng/mL
same,half-life,"[2]; male, ICR, mouse, po, plasma",54.8 min
same,brain-to-plasma partition coefficient (Kp) = AUCbrain/AUCplasma,"[2]; p.o., AUClast",0.0643
"COc1ccc2nc(S(=O)(=O)Cc3ncc(C)c(OC)c3C)[nH]c2c1 [Metabolite M14, omeprazole sulfone]","D, i.p. route (brain): found / not found",[1],O
same,"A, i.p. route (plasma): found / not found",[1],O
same,"E, i.v. route (brain): found / not found",[1],O
same,"B, i.v. route (plasma): found / not found",[1],O
same,samples (matrix/route) in which the metabolite was observed,[1],all plasma samples (all dosing routes) and all brain samples (all dosing routes)
same,"F, p.o. route (brain): found / not found",[1],O
same,"C, p.o. route (plasma): found / not found",[1],O
COc1ccc2[nH]c([S+]([O-])Cc3ncc(C)cc3C)nc2c1 (stereo not shown) [Metabolite M11],"D, i.p. route (brain): found / not found",[1],O
same,"A, i.p. route (plasma): found / not found",[1],O
same,"E, i.v. route (brain): found / not found",[1],O
same,"B, i.v. route (plasma): found / not found",[1],O
same,samples (matrix/route) in which the metabolite was observed,[1],all plasma samples (all dosing routes) and all brain samples (all dosing routes)
same,"F, p.o. route (brain): found / not found",[1],O
same,"C, p.o. route (plasma): found / not found",[1],O
